Laboratory results from patent US20160271097A1, “FORMULATION OF OLOPATADINE” (NEPHRON PHARMACEUTICALS CORPORATION, priority 2013, published 2016).

Experiment: Dissolution of olopatadine in the formulation (minimum PVA)
Type: physicochemical
Settings: Olopatadine about 2.0 mg/mL
Experimental: Initial experiments were conducted to examine the possible concentration ranges for the organic modifiers which would initially solubilize Olopatadine during formulation and maintain the solution stability such that no crystallization of the drug product would occur. An experiment was carried out to determine the minimum amount of PVA needed to obtain the total dissolution of Olopatadine in the formulation. The minimum amount of PVA determined to be effective in solubilizing the drug substance during formulation and which prevented crystal growth in the drug product was 0.5%. Concentrations of such PVA below 0.5% are insufficient to permit dissolution of Olopatadine concentrations of about 2.0 mg/mL. Concentrations at or […] were susceptible to the drug substance starting to dissolve but then precipitating back out of solution during formulation.

## CN(C)CC/C=C1/c2ccccc2COc2ccc(CC(=O)O)cc21 [Olopatadine, {(11Z)-11-[3-(dimethylamino)propylidene]-6,11-dihydrodibenzo[b,e]oxepin-2-yl} acetic acid]
  Minimum amount of PVA effective in solubilizing the drug substance and preventing crystal growth: 0.5%
